Measured values taken from patent US9334272B2, “Derivatives of purinic and pyrimidinic antiviral agents and use thereof as potent anticancer agents” (Ramot at Tel-Aviv University Ltd., priority 2007, dated 2016).

Assays:
22RV1 cells = test: Hoechst viability assay, 22RV1 prostate carcinoma cells; type: cell-based, human; conditions: 72 hours, Hoechst
Experimental: (§1) Cells (in quadruplicate) at the specified density were suspended in 200 μL medium supplemented with 10% FCS seeded in 96-well plates for 24 hours, then exposed to the drugs for 72 hours. The viability of the cells was determined by Hoechst fluorescent assay as described by Nudelman et al., 2005. Leukemic cell viability after 72 hours of treatment was determined by an MTT (3-(4,5-dimethylthiazol-2-yl)-2,5-diphenyltetrazolium bromide) assay as described by Levovich et al., 2007.
(§2) IC50 values were determined by linear regression of the percentage of survival following drug titration.

[1] = system: kinases which phosphorylate acyclovir; test: Acyclovir phosphorylation (viral thymidine kinase activity) in 4T1 cell extracts; type: cell-based, murine; conditions: 4T1 cells, 24 hours, 40 μM
Experimental: The mammalian thymidine kinase (TK) has a narrow specificity and acts only on thymidine. […] The lysates obtained were kept at −70 ° C. until analyzed either spectroscopically or by RT-PCR. […] The ADP is converted to ATP by pyruvate kinase when it hydrolyzes phosphoenolpyruvate (PEP) to pyruvate. Lactate dehydrogenase then converts pyruvate to lactate and NADH to NAD^+. The decrease in fluorescence emitted by NADH (excitation/emission of 320/460 nm) during 10 cycles, each lasting 1 minute, were monitored using a FluoStar fluorometer. The reaction velocity was determined by the slope of the fluorescence vs. time.

U-251 cells [2] = test: Hoechst viability assay, U-251 glioma cells; type: cell-based, human; conditions: 72 hours, Hoechst
Experimental: as §1, §2

U-251 cells [3] = test: Reactive oxygen species by DCF-DA FACS, U-251 cells; type: cell-based, human; conditions: 2 hour treatment
Experimental: ROS levels were determined by FACS analysis of U-251 cells treated with dichlorodihydrofluorescein diacetate (DCF-DA), which becomes fluorescent when oxidized.

herpes virus = conditions: Brigden & Whiteman, 1983; cited from earlier work
acetylated histone H4 = test: Histone H4 acetylation Western blot, U-251 cells; type: cell-based, human; conditions: 2-4 hours of treatment
Experimental: For the determination of in vitro histone acetylation, 2.5-3×10^6 cells, seeded in 100 mm culture dishes, were supplemented with RPMI medium containing 10% heat inactivated FCS and were treated with the drugs the following day. At the specified times post-treatment, the cells were removed with a rubber policeman, centrifuged, washed, lysed with lysis buffer (PBS, Nonidet® NP-40 1%, sodium deoxycholate 0.5%, sodium dodecyl sulfate (SDS) 0.1%, 1 mM phenylmethylsulfonyl fluoride (PMSF), 1 mM sodium orthovanadate, and 1 μM each of leupeptin and pepstatin) and centrifuged at 10,000 g for 10 minutes at 4° C. […] The extract was then lyophilized, and protein concentration was determined with a BCA kit (Pierce, USA). […] The fold increase of acetylated histones was determined by the ratio of band intensities of treated and untreated cells or mice, normalized to loading control (total histone H3).
Cell lysates or acid extracted histones were solubilized in a concentrated (×4) loading buffer (62.5 mM Tris-HCl, pH 6.8, 1% SDS, 10% glycerol v/v, 1% dithiothreitol (DTT) and 0.1 mg/ml bromophenol blue). […] The membrane was exposed for 5 minutes to Chemiluminescence BioMax light film (Kodak, USA) and the intensity of the bands was measured with a VersaDoc instrument with a Quantityl program (Bio-Rad, USA). […]

U-251 cells [4] = test: Apoptosis/cell death by annexin V-FITC and propidium iodide FACS, U-251 cells; type: cell-based; conditions: Homo sapiens; U-251 glioblastoma cells, 50 μM, 24 hours (untreated 9%)
Experimental: Cells were seeded in six-well plates (10^5 cells/well) for 24 hours and were then treated as specified, trypsinized, washed with PBS, double-stained with annexin V-FITC (fluorescein isothiocyanate) and propidium iodide, according to the manufacturer's instructions and subjected to flow cytometry analysis (FACScalibur cytometer, Becton Dickinson).

proteasome = target: T1, proteasome (Homo sapiens, UniProt P28074); test: Proteasome activity assay, U-251 cells; type: cell-based; conditions: 4 or 24 hours, alone or in combination
T1 construct: proteasome activity in U-251 cells treated for 4 or 24 hours; endogenous in cells; host or cells: U-251 cells (lysates of treated cells)
T1 sequence (P28074 60-263): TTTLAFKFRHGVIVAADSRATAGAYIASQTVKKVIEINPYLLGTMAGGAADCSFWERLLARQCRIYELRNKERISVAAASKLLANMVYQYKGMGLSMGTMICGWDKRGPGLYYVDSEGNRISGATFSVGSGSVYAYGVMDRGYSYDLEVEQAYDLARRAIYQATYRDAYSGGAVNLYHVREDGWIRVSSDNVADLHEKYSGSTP
Experimental: The peptidase or chymotrypsin-like activity of the proteasome was assayed using N-succinyl-Leu-Leu-Val-Tyr-7-amido-4-methylcoumarin. The lysates (100 μL) were incubated with 13 (M of the substrate in 100 mM Tris, pH 7.5, for 1 hour with shaking at room temperature. The reaction was stopped by addition of ice-cold ethanol, and the samples were centrifuged for 5 minutes at 2500 g. The supernatants were collected and the fluorescence was measured with excitation/emission filters of 390/460 nm using the FluoStar fluorimeter. The protein concentration was determined using a BCATM kit (Pierce) and the proteasome activity was derived from the ratio of fluorescence at 460 nm/(g of protein. The percentage of proteasome activity was calculated relative to untreated cells.

U-251 cells [5] = test: Mitochondrial membrane potential (JC-1 staining), U-251 cells; type: cell-based, human; conditions: 60 μM, 24 hour treatment
U-251 cells [6] = test: Cell cycle analysis (propidium iodide flow cytometry), U-251 cells; type: cell-based, human; conditions: 24 hours
Experimental: Cells (4×10^5) were seeded in 35 mm culture dishes and after 24 hours were starved in medium without serum for an additional 24 hours, and then treated with the drug for an additional 24 hours. The cells were then trypsinized to a single cell suspension in PBS, washed, and resuspended in PBS at a concentration of 10^6 cells/mL. The cells were fixed with 70% ethanol for 30 minutes at 4° C., centrifuged and resuspended in 1 ml PBS containing 0.1% Tween 20 and 0.05% bovine serum albumin (BSA). RNase free of DNase was added, and the cell suspension (10^6 cells) was incubated at […] for 30 minutes. The cell suspension was then chilled on ice to a temperature in the range of 2 to 8° C. Propidium iodide (50 μg/mL) was added to the cell suspension, which was than kept in the dark. Red fluorescence (>630 nm) was analyzed on the flow cytometer.

For `Nc1nc2c(ncn2COCCO)c(=O)[nH]1` [acyclovir, reference compound], the IC50 (22RV1 cells) was “could not be reached”, the “rate of acyclovir phosphorylation (kinase activity)” value [1] was “no effect on the kinase activity” and the IC50 (U-251 cells [2]) was “could not be reached”. For the same compound, the “level of oxidation in cells (ROS)” value (U-251 cells [3]) was “little if any effect”, the “inhibition of herpes virus replication at concentrations lower than those inhibiting mammalian cellular functions” value (herpes virus) was 300-3000 fold and the “acetylation of histone H4” value (acetylated histone H4) was “did not”. For the same compound, the mortality at 50 µM (U-251 cells [4]) was 11%, the “inhibitory effect on proteasome activity” value (proteasome) was “only a marginal inhibitory effect” and the mitochondrial membrane potential (U-251 cells [5]) was “no apparent effect”. For the same compound, the “phase of cell-cycle arrest” value (U-251 cells [6]; 1 mM) was “S phase”, the “Percentage of cells in G0-G1 stage” value (U-251 cells [6]; 1000 μM) was 14.1% and the “Percentage of cells in G2-M stage” value (U-251 cells [6]; 1000 μM) was 12.2%. The “Percentage of cells in S stage” value (U-251 cells [6]; 1000 μM) was 73.6%.
